Measured values as given in patent EP1153612A1, “ANTICANCER AGENT POTENTIATORS” (Tsuruo, Takashi, priority 1999, dated 2000).

What was measured:
topoisomerase IIα = assay: Amount of expression of topoisomerase IIα in whole cell extract by western blotting; type: cell-based, human; settings: glucose starvation condition; 2.5, 5, and 10 µM; FIG. 17(b)
From the text: Topoisomerase II inhibiting anticancer drug stabilizes a complex (cleavable complex) consisting of the DNA and topoisomerase IIα occurring in a catalytic reaction process of topoisomerase IIα to cause DNA damage. Therefore, cell-killing effect of the topoisomerase II-inhibiting anticancer drug depends on the amount of intracellular expression of topoisomerase IIα essential for formation of the cleavable complex. Then, the amount of expression of topoisomerase IIα in the cultured cancer cell under the glucose starvation and hypoxia environment that are found in the solid cancer and the effect of the proteasome inhibiting agent to the amount of expression were examined.
The culture condition of cells is same as that described in Example 1 including the M phase synchronous culture method and culture under the glucose starvation condition. Culture under hypoxia condition, that is found in the solid cancer, similar to glucose starvation was carried out using the culture medium (that prepared by adding 5% FBS to RPMI1640 culture medium) under the ordinary condition in a Gaspack 100 anaerobic system (Becton Dickinson made). Culture under the glucose starvation condition and hypoxia condition was carried out for 14 hours .
With the purpose to prepare a whole cell extract solution, cells culture under the above described condition were washed with an ice-cooled PBS twice and then, cells were removed from the culture dish by using a cell scraper (Sumitomo Bakelite made) for collection. Cells collected were precipitated by centrifugation and then, dissolved in an SDS sample buffer to collect as the extract solution from all cells. For reference, the composition of the SDS sample buffer was 10% v/v, glycerol, 5% 2-mercaptoethanol, 2% SDS (sodium lauryl sulfate), and 62.5 mM tris-hydrochloric acid (pH 6.8).
The amount of topoisomerase IIα in the extract solution from all cells was measured by the western blotting method. The extract solution from all cells containing a total protein quantity of 30 µg was put on an SDS polyacrylamide gel (4-20 Multigel: Daiichi Pure Chemicals K.K. made) and subjected to electrophoresis in an electrophoresis buffer (25 mM tris, 192 mM glycine, and 0.1% SDS) in a 40 mA constant current for 1 hour. Subsequently, blotting was carried out in 4°C blotting buffer (25 mM tris, 192 mM glycine, and 20% methanol) in a 50 V constant voltage for 12 hours to transfer a protein separated in the SDS polyacrylamide gel to a nitrocellulose membrane. This nitrocellulose membrane was soaked in a blocking buffer (0.1% Tween 20, 4% skim milk-added PBS) for 1 hour to carry out blocking. The nitrocellulose membrane blocked was soaked in a solution, that was prepared by adding anti-topoisomerase IIα antibody (Cambridge Research Biochemicals Corp. made) of the final concentration 1 µg/ml as the primary antibody to the blocking buffer solution, for 1 hour. The nitrocellulose membrane was washed with the blocking buffer three times (5 minutes once), and then, soaked in the solution, in which a 1/1000 volume of an antimouse antibody (Amersham Pharmacia Biotech made) labeled with horse radish peroxidase as a secondary antibody had been added to the blocking buffer, for 1 hour. The nitrocellulose membrane was washed with the blocking buffer three times (5 minutes once), and then, washed with the PBS, to which 0.1% Tween 20 was added, three times (5 minutes once). The nitrocellulose membrane after completion of antibody reaction and washing was treated with the ECL reagent (Amersham Pharmacia Biotech made) after a handling manual and a topoisomerase IIα-specific signal was detected on an X-OMAT™AR film (Kodakmade). For reference, steps after blotting was carried out in a room temperature. […]
The cell culture condition for both M phase-synchronized culture method and culture under the glucose starvation condition was as described in Example 1. […]

topoisomerase I = assay: Amount of expression of topoisomerase I in whole cell extract by western blotting; type: cell-based, human; settings: ordinary and glucose starvation condition; 2.5, 5, and 10 µM; FIG. 17(a)
Description: The cell culture condition for both M phase-synchronized culture method and culture under the glucose starvation condition was as described in Example 1. M phase-synchronized cells were cultured in the culture medium, to which lactacystin of the final concentration 10 µM was added, or the culture medium, to which this was not added, as the proteasome inhibiting agent under the ordinary condition and the glucose starvation condition, respectively, for 13 hours. […] In order to examine sensitivity of cells against the topoisomerase I inhibiting agent, camptothecin (Yakult made), the drug was added to the culture medium to continue further culturing for 4 hours. Sensitivity of cells was measured by applying the colony formation method described in Example 1. On the other hand, the amount of expression of topoisomerase I that is the target molecule of camptothecin was measured by preparing the whole cell extract solution as described in Example 2 followed by the western blotting method. For reference, in measuring the amount of expression of topoisomerase I, regarding the proteasome inhibiting agents, clasto-lactacystin β lactone (Boston Biochem made), which is an activated form of lactacystin, was used in the final concentration of 2.5, 5, and 10 µM. Meanwhile, as the antibody against human topoisomerase I, a mouse monoclonal antibody established by Tsuruo et al. was used.

[1] = tested on: human colon cancer cell HT29; assay: Anticancer therapy in human cancer cell-transplanted nude mouse model (size of tumor lump); type: in vivo, nude mouse BALB/cAnNCrj-nu/nu; settings: Example 5; intraperitoneally three times every 4 days; etoposide 33 mg/kg, lactacystin 40 mg/kg; in combined use lactacystin 5 hours before etoposide; FIG. 11
From the text: A human colon cancer cell HT29 was transplanted subcutaneously to a nude mouse to examine a therapeutic effect of combined use of lactacystin, the proteasome inhibiting agent, with etoposide, the anticancer drug targeting topoisomerase II.
As an experimental animal, the nude mouse BALB/cAnNCrj-nu/nu of 8-week old female (Charles River Laboratories product) was used. In order to form a tumor lump in the nude mouse, 1×10^7 HT29 cells was subcutaneously transplanted. After 8 to 10 days of transplanting, the tumor lump of HT29 cells grew to […] and at this point, the therapy was started. […]
The therapy was conducted by dividing the HT29 tumor-transplanted mice into 4 groups to assign 4 animals to 1 group as follows by administering intraperitoneally three times every 4 days: (1) control group untreated with saline, (2) etoposide 33 mg/kg, (3) lactacystin 40 mg/kg, (4) lactacystin 40 mg/kg and etoposide 33 mg/kg. […] Since start of the therapy, a size of the tumor lump was measured to measure effect of the therapy by administration of drugs once every 4 days. […]
The effect of therapy by simultaneous administration of the proteasome inhibiting agent, lactacystin, and the topoisomerase II-targeting anticancer, doxorubicin was examined. […] After start of treatment, once every 4 to 5 days, the size of the tumor lump was measured to measure the effect of treatment by drug administration.

[2] = tested on: human colon adenocarcinoma cell HT-29; assay: Sensitivity of cells to anticancer drug by colony formation method (M phase-synchronized cells, with or without proteasome inhibiting agent); type: cell-based; settings: etoposide 5, 10, and 15 µg/ml, 1 hour, FIG. 1
Description: In the glucose starvation environment found in the solid cancer, the effect of combined use of the proteasome inhibitor in a human colon adenocarcinoma cell HT-29 with the anticancer drug targeting topoisomerase II was tested.
Concerning culture media, for a culture condition in a normal state, RPMI 1640 medium (Nissui Pharmaceutical Co.-made) to which a 5% FBS (fetal bovine serum) was added and for the culture condition in the glucose starvation state symbolically found in the solid cancer, RPMI 1640 medium (Lifetech Oriental-made), lacking glucose, in which the 5% FBS was added were used, respectively. Culture was carried out using a CO2 incubator (Tabai Espec-made) under conditions of 5% CO2/95% air and humidity 100%.
In order to test sensitivity to the anticancer drug, the cell cycle synchronization culture methodwas employed. Nocodazol (Sigma made) was used to synchronize the cell cycle, cells in a logarithmic proliferation phase were treated with 40 ng/ml Nocodazol for 9 hours, and cells accumulated in cell division phase (Mpahse) were collected by gentle pipetting. M phase-synchronized cells collected through these steps were washed with PBS (phosphate buffered saline) followed by inoculation of 1×10^5 cells per well of 12 well-culture plate.
M phase-synchronized cells were cultured under the normal condition and the glucose starvation condition to conduct treatments with the proteasome inhibiting agent and the anticancer drug as follows. For cells under the glucose starvation condition, the culture medium, to which the proteasome inhibiting agent and the protease inhibiting agent not inhibiting proteasome were added as the control group, and the culture medium, to which no inhibiting agent has been added, was used. For cells under the normal condition, the culture medium, to which each inhibiting agent was not added, was used. After inoculation of cells, culture was carried out for 13 hours in each culture medium. […]
Sensitivity of cells to the anticancer drug was measured using the colony formation method. As described above, cells treated with the proteasome inhibiting agent and the anticancer drug were washed with PBS followed by soaking in trypsin (Lifetech Oriental made) solution and removed from a culture dish to suspend in an ordinary culture medium. These cells were inoculated again in 500 to 5000 cells for a 10 cm culture dish and cultured for 10 to 12 days to form a colony. The colony formed was fixed by 10% formaldehyde solution and stainedwith 0.01% crystal violet (Wako Pure Chemicals made) solution. Number of colony was counted and a Cell survival rate was calculated assuming that the number of colonies untreated with the anticancer drug is 1.
For reference, the proteasome inhibiting agent and the protease inhibiting agent not inhibiting proteasome used as described above were as follows. • (1) Proteasome inhibiting agent • . […] MG115 (carbobenzoxy-L-Leucyl-L-Leucyl-L-Norvalinal): final concentration 2.5 µM (Peptide Institute Inc. made) • . MG132 (carbobenzoxy-L-Leucyl-L-Leucyl-Leucinal) : final concentration 2.5 µM (Peptide Institute Inc. made) • . Lactacystin, final concentration 10 µM (Kindly supplied from The Kitasato Institute made) • (2) Protease inhibiting agent not inhibiting proteasome • . E64, final concentration 25 µM (Peptide Institute Inc. made) • . ZLLal (carbobenzoxy-L-Leucyl-L-Leucinal): final concentration 25 µM (Peptide Institute Inc. made)
The cell culture condition for both M phase-synchronized culture method and culture under the glucose starvation condition was as described in Example 1. M phase-synchronized cells were cultured in the culture medium, to which lactacystin of the final concentration 10 µM was added, or the culture medium, to which this was not added, as the proteasome inhibiting agent under the ordinary condition and the glucose starvation condition, respectively, for 13 hours. […]

CC(C)[C@H](O)[C@@]12NC(=O)[C@H](C)[C@@H]1OC2=O [activated type of lactacystin, clasto-lactacystin β lactone]
amount of expression of topoisomerase IIα (topoisomerase IIα): the lowering of expression is perfectly inhibited | amount of expression of topoisomerase I (topoisomerase I): does not change

COc1cc([C@@H]2c3cc4c(cc3[C@@H](O[C@@H]3O[C@@H]5CO[C@@H](C)O[C@H]5[C@H](O)[C@H]3O)[C@H]3COC(=O)[C@H]23)OCO4)cc(OC)c1O [etoposide]
suppression of tumor proliferation (size of the tumor lump) [1]: less suppression of tumor proliferation | Cell survival (colony formation) with etoposide ([2]; glucose starvation condition): cells showed resistance against etoposide to survive | Cell survival (colony formation) with etoposide ([2]; ordinary culture condition): almost all HT29 cells died
